Data: US5770604A, “Aconitine compound and an antipyretic/analgesic/anti-inflammatory agent” (priority 1994, dated 1998)

What was measured:
Type in all cases: in vivo, mice (Std:ddY, male)
[1] = test system: nociceptive response (licking); experiment: Analgesic activity by the hot-plate method; settings: mouse, 52° C. plate, solution 10 mg/10 ml, mean ± standard error
Experimental: Measurement of Analgesic Activity by the Hot-Plate Method
Std:ddY Strain male mice (20-25 g) were fasted for one day before the experiment, and were used. After compounds shown in Table 1 were formed to the tartaric acid salts, these compounds were dissolved in 0.9% physiologocal saline solution at the rate of 10 mg/10 ml, respectively and these solution were used as test compound solution. In a control, 0.9% physiological saline solution was used. Mice were placed on a cyrindric hot plate (diameter: 22 cm, height: 11 cm) made of copper which was fixed in a water bath adjusted to 52° C. so that each animal's four paws came into contact with the plate and the time taken to show the nociceptive response (licking) as an index of pain was measured. Mice showing response latency above 25 seconds were excluded from the experiment. To prevent a burn damage of mouse tissue by heating, cutoff time of 50 seconds was defined. The results were described as an inhibition rate (%) obtained from the following equation.
Inhibition rate (%)=(A-B)×100/(50-B)
A: Response latency (seconds) after the administration of test compound solution
B: Response latency (seconds) before the administration of test compound solution

[2] = test system: carrageenin-induced paw edema; experiment: Antiinflammatory activity by the carrageenin-induced hind paw edema; settings: mouse, 30 mg/kg p.o., mean ± standard error, n = 6
Experimental: Measurement of Antiinflammatory Activity by the Carrageenin-Induced Hind Paw Edema
Std:ddY Strain male mice (20-25 g) were fasted for one day before the experiment, and were used. After test compounds shown in Table 1 was formed to a salt with tartaric acid, this salt was dissolved in sterilized and distilled water at the rate of 30 mg/10 ml to give the test compound solution. As a control, sterilized and distilled water was used. One hour after the oral administration of test compound solutions, 25 μl of λ-carrageenin suspended in 0.9% physiological saline solution (0.5 mg/25 μl) was injected s.c. under the plantar surface of the right hind paw of a mouse and 25 μl of 0.9% physiological saline solution was injected s.c. under the plantar surface of the left hind paw of the same mouse. Three hours and five hours after carrageenin injection, the […] of the paw was measured with a dial gauge calliper. To the control group, One hour after the oral administration of sterilized and distilled water at the rate of 10 ml/kg, 25 μl of λ-carrageenin (0.5 mg/25 μl) suspended in 0.9% physiological saline solution was injected s.c. under the plantar surface of the right hind paw of a mouse and 25 μl of 0.9% physiological saline solution was injected s.c. under the plantar surface of the left hind paw of the same mouse and the later operation was done in the same manner as in the test compound dosing group mentioned above. The results were described as a swelling rate (%) obtained from the following equation.
Swelling rate (%)=(R-L)×100/L
R: the thickness of the right hind paw
L: the thickness of the left hind paw

[3] = test system: pain threshold (tail-pressure); experiment: Analgesic activity by the tail-pressure method (s.c.); settings: mouse, 10 mg/10 ml at 10 ml/kg s.c., 1 hour after administration, mean ± standard error
Experimental: (1) Measurement of Analgesic Activity by the Tail-Pressure Method
Std:ddY Strain male mice (20-25 g) were fasted for one day before the experiment, and were used. After test compounds shown in Table 1 was formed to a salt with tartaric acid, this salt was dissolved in 0.9% physiological saline solutions at the rate of 10 mg/10 ml to give the test compoun d solution . As a control, 0.9% physiological saline solution was used. A tail-pressure apparatus was used in this experiments. Before the administration of test compounds, the pain threshold was measured twice at intervals of 30 minutes and those mice indicating a pain threshold of 50 to 100 mmHg were selected and used. The pain threshold of each mouse was measured at 1 hour after test compound solution mentioned above was administered at 10 ml/kg, s.c. 0.9% Physiological saline solution as a control was administered at 10 ml/kg, s.c . The results were described as an inhibition rate (%) obtained from the following equation. Cutoff level of pressure was defined to be 230 mmHg for the prevention of the damage of mouse tail.
Inhibition rate (%)=(A-B)×100/(C-B)
A: Pain threshold (mmHg) after the administration of test compound solution
B: Pain threshold (mmHg) before the administration of test compound solution
C: Cutoff pressure (230 mmHg)

[4] = test system: pain threshold (tail-pressure); experiment: Tail-pressure method, comparison with morphine (i.v.); settings: mean ± standard error
Experimental: (2) Comparison with Morphine
Std:ddY Strain male mice (20-25 g) were fasted for one day before the experiment, and were used. In this experiment, the tartaric acid salt of a compound of number (2) in Table 1 and morphine hydrochloride as a possitive control were used. This tartaric acid salt was dissolved in 0.9% physiological saline solution at the rates of 5 mg/2 ml, 3 mg/2 ml and 1 mg/2 ml. Morphine hydrochloride was dissolved in 0.9% physiological saline solution at the rates of 5 mg/2 ml, 3 mg/2 ml and 1 mg/2 ml. As a negative control, 0.9% phisiological saline solution was used. A tail-pressure apparatus was used in this experiments. Before the administration of test compounds, the pain threshold was measured twice at intervals of 30 minutes and those mice indicating a pain threshold of 50 to 100 mmHg were selected and used. The pain threshold of each mouse was measured at 10, 20 and 30 minutes after test compound solution mentioned above was administered at 2 ml/kg, i.v. 0.9% Physiological saline solution as a control was administered i.v. The results were described as an inhibition rate (%) indicating in the preceding paragraph (1).

[5] = test system: pain threshold (tail-pressure); experiment: Tail-pressure method, experiment combined with morphine antagonist (levallorphan); settings: mean ± standard error
Experimental: (4) Experiment Combined with Morphine Antagonist
Std:ddY Strain male mice (20-25 g) were fasted for one day before the experiment, and were used. In this experiment, the tartaric acid salt of a compound of number (2) in Table 1, morphine hydrochloride and levallorphan hydrochloride of an opioid antagonist were used. The tartaric acid salt of a compound of number (2) was dissolved in 0.9% physiological saline solution at the rate of 10 mg/2 ml. Morphine hydrochloride was dissolved in 0.9% physiological saline solution at the rate of 10 mg/2 ml. Levallorphan hydrochloride was dissolved in 0.9% physiological saline solution at the rate of 1 mg/10 ml. As a control, 0.9% physiological saline solution was used. A tail-pressure apparatus was used in this experiments. Before the administration of levallorphan hydrochloride, the pain threshold was measured twice at intervals of 30 minutes and those mice indicating a pain threshold of 50 to 100 mmHg were selected and used. Levallorphan hydrochloride solution mentioned above was administered s.c. at the rate of 10 ml/kg and, 30 minutes later, the above tartaric acid salt solution compound of number (2) or morphine hydrochloride solution was injected i.v. at the rate of 2 ml/kg, respectively. Each pain threshold was measured 10, 20 and 30 minutes after an intravenous injection. In control group, 0.9% physiological saline solution was injected i.v. at the rate of 2 ml/kg at 30 minutes after s.c. administration at 10 ml/kg of 0.9% physiological saline solution. In the single administration group of levallorphan hydrochloride, levallorphan hydrochloride solution mentioned above was administered s.c. at the rate of 10 ml/kg and, 30 minutes later, 0.9% physiological saline solution was injected i.v. at the rate of 2 ml/kg. The results were described in Table 10 as an inhibition rate (%) indicating in the preceding paragraph (1).

[6] = test system: pain threshold (tail-pressure); experiment: Tail-pressure method, experiment combined with morphine administration; settings: mean ± standard error, n = 7
Experimental: (3) Experiment Combined with Morphine Administration
Std:ddY Strain male mice (20-25 g) were fasted for one day before the experiment, and were used. In this experiment, the tartaric acid salt of a compound of number (2) in Table 1 and morphine hydrochloride were used. The tartaric acid salt of a compound of number (2) was dissolved in 0.9% physiological saline solution at the rate of 7 mg/10 ml. Morphine hydrochloride was dissolved in 0.9% physiological saline solution at the rates of 5 mg/2 ml, 3 mg/2 ml and 1 mg/2 ml. As a control, 0.9% phisiological saline solution was used. A tail-pressure apparatus was used in this experiments. Before the administration of test compounds, the pain threshold was measured twice at intervals of 30 minutes and those mice indicating a pain threshold of 50 to 100 mmHg were selected and used. Mice was divided in the following four groups, (i) control group, (ii) the administration group of the tartaric acid salt of a compound of number (2), (iii) the administration group of morphine hydrochloride and (iv) the combined administration group with the tartaric acid salt of a compound of number (2) and morphine hydrochloride. In the administration group of the tartaric acid salt of a compound of number (2), 0.9% physiological saline solution of this tartaric acid salt mentioned above was injected s.c. at the rate of 10 ml/kg and, 30 minutes later, 0.9% physiological saline solution was injected i.v. at the rate of 2 ml/kg. In the administration group of morphine hydrochloride, 0.9% physiological saline solution was injected s.c. at the rate of 10 ml/kg and, 30 minutes later, the above physiological saline solution of morphine hydrochloride was injected i.v. at the rate of 2 ml/kg. In the combined administration group with the tartaric acid salt of a compound of number (2) and morphine hydrochloride,the above physiological saline solution of the tartaric acid salt of a compound of number (2) was injected s.c. at the rate of 10 ml/kg and, 30 minutes later, the above physiological saline solution of morphine hydrochloride was injected i.v. at the rate of 2 ml/kg. In control group, 0.9% physiological saline solution was injected s.c. at the rate of 10 ml/kg and, 30 minutes later, 0.9% physiological saline solution was injected i.v. at the rate of 2 ml/kg. Each pain threshold was measured 10, 20 and 30 minutes after an intravenous injection. The results were described in Table 9 as an inhibition rate (%) indicating in the preceding paragraph (1).

“15-O-acetyl-8-deoxy-16-epi-14-O-p-chlorobenzoylaconine [(10)]” was tested, and the “Inhibition rate (hot-plate method)” value [1] was 40 ± 10%, the Swelling rate ([2]; 3 hour) was 49 ± 6% and the Swelling rate ([2]; 5 hour) was 49 ± 11%. For the same compound, the “Inhibition rate (tail-pressure method)” value [3] was 23 ± 7%.

CN1CC[C@]23c4c5ccc(O)c4O[C@H]2[C@@H](O)C=C[C@H]3[C@H]1C5 [morphine, reference compound] showed an Inhibition rate ([4]; 1 mg/kg i.v., 10 minutes) of 1 ± 2%, an Inhibition rate ([4]; 1 mg/kg i.v., 20 minutes) of 2 ± 2% and an Inhibition rate ([4]; 1 mg/kg i.v., 30 minutes) of 2 ± 1%. The Inhibition rate ([4]; 3 mg/kg i.v., 10 minutes) was 13 ± 7%, the Inhibition rate ([4]; 3 mg/kg i.v., 20 minutes) was 18 ± 10% and the Inhibition rate ([4]; 3 mg/kg i.v., 30 minutes) was 12 ± 8%. For the same compound, the Inhibition rate ([4]; 5 mg/kg i.v., 10 minutes) was 38 ± 12%, the Inhibition rate ([4]; 5 mg/kg i.v., 20 minutes) was 30 ± 10% and the Inhibition rate ([4]; 5 mg/kg i.v., 30 minutes) was 29 ± 12%. The Inhibition rate ([5]; 10 mg/kg i.v., with levallorphan 1 mg/kg s.c. 30 minutes before, 10 min) was 10 ± 1%, the Inhibition rate ([5]; 10 mg/kg i.v., with levallorphan 1 mg/kg s.c. 30 minutes before, 20 min) was 10 ± 7% and the Inhibition rate ([5]; 10 mg/kg i.v., with levallorphan 1 mg/kg s.c. 30 minutes before, 30 min) was 20 ± 6%. For the same compound, the Inhibition rate ([5]; 10 mg/kg i.v., without levallorphan, 10 min) was 70 ± 13%, the Inhibition rate ([5]; 10 mg/kg i.v., without levallorphan, 20 min) was 73 ± 9% and the Inhibition rate ([5]; 10 mg/kg i.v., without levallorphan, 30 min) was 65 ± 12%. It also gave an Inhibition rate ([6]; morphine 1 mg/kg i.v. alone, 10 min) of 2 ± 2%, an Inhibition rate ([6]; morphine 1 mg/kg i.v. alone, 20 min) of 3 ± 4% and an Inhibition rate ([6]; morphine 1 mg/kg i.v. alone, 30 min) of 1 ± 2%. For the same compound, the Inhibition rate ([6]; morphine 3 mg/kg i.v. alone, 10 min) was 11 ± 8%, the Inhibition rate ([6]; morphine 3 mg/kg i.v. alone, 20 min) was 15 ± 9% and the Inhibition rate ([6]; morphine 3 mg/kg i.v. alone, 30 min) was 10 ± 6%. The Inhibition rate ([6]; morphine 5 mg/kg i.v. alone, 10 min) was 36 ± 10%, the Inhibition rate ([6]; morphine 5 mg/kg i.v. alone, 20 min) was 32 ± 11% and the Inhibition rate ([6]; morphine 5 mg/kg i.v. alone, 30 min) was 26 ± 8%.

With COCC12CN(C)C3C4C(OC)C1C3(C(OC)CC2OC(C)=O)C1CC2(O)C(OC)C(OC(C)=O)C4(O)C1C2OC(=O)c1ccc(Cl)cc1 (stereo not drawn) [(5), 3,15-di-O-acetyl-14-O-p-chlorobenzoylmesaconine] the “Inhibition rate (hot-plate method)” value [1] was 37 ± 10%, the Swelling rate ([2]; 3 hour) was 43 ± 10% and the Swelling rate ([2]; 5 hour) was 58 ± 10%. For the same compound, the “Inhibition rate (tail-pressure method)” value [3] was 40 ± 10%.

For COCC12CCC(OC)C34C5CC6(O)C(OC)C(OC(C)=O)C(O)(C5C6OC(=O)c5ccc(Cl)cc5)C(C(OC)C13)C4N(C)C2 (stereo not drawn) [(6), 15-O-acetyl-14-O-p-chlorobenzoylhypaconine], the “Inhibition rate (hot-plate method)” value [1] was 46 ± 8%, the Swelling rate ([2]; 3 hour) was 46 ± 5% and the Swelling rate ([2]; 5 hour) was 60 ± 5%. For the same compound, the “Inhibition rate (tail-pressure method)” value [3] was 27 ± 11%.

With C=CCN1CC[C@]23CCCC[C@H]2[C@H]1Cc1ccc(O)cc13 [levallorphan] the Inhibition rate ([5]; levallorphan 1 mg/kg s.c. alone, 10 min after i.v. injection) was 3 ± 4%, the Inhibition rate ([5]; levallorphan 1 mg/kg s.c. alone, 20 min after i.v. injection) was -3 ± 4% and the Inhibition rate ([5]; levallorphan 1 mg/kg s.c. alone, 30 min after i.v. injection) was 1 ± 3%.
